Assay results: US6596772B1, “Phosphate mimics and methods of treatment using phosphatase inhibitors” (Sugen, Inc., priority 1999, dated 2003)
Read-outs that look alike come from different tables or passages of the source.

Experiments:
Experiment in all cases: PTP IC50 assay, pNPP or FDP as substrate
Assay type in all cases: biochemical
[1] = molecular target: T1, PTP BETA (Homo sapiens, UniProt P23467)
T1 construct: The catalytic domain was amplified using the following oligonucleotides; made in house; host or cells: E. coli BL-21 (pGEX 6P-1)
T1 sequence (P23467 1653-1997): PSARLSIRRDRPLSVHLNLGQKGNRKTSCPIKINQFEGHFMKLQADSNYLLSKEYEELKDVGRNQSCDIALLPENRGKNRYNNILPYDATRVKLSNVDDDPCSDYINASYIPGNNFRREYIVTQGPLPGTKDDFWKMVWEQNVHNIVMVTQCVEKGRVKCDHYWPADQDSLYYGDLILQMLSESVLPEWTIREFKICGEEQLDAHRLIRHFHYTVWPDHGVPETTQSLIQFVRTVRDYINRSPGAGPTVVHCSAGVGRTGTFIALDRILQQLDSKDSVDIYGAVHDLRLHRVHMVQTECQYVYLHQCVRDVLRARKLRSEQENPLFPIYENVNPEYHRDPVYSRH
Description: (§1) The following in vitro assay procedure is preferred to determine the level of activity and effect of the different compounds of the present invention on one or more of the PTPs. Similar assays can be designed along the same lines for any PTP using techniques well known in the art.
(§2) The catalytic assays described herein are performed in a 96-well format. The general procedure begins with the determination of PTP optimal pH using a three-component buffer system that minimizes ionic strength variations across a wide range of buffer pH. Next, the Michaelis-Menten constant, or Km, is determined for each specific substrate-PTP system. This Km value is subsequently used as the substrate reaction concentration for compound screening. Finally, the test PTP is exposed to varying concentrations of compound for fifteen minutes and allowed to react with substrate for ten minutes. The results are plotted as percent inhibition versus compound concentration and the IC50 interpolated from the plot.
(§3) All assays were performed using pNPP or FDP as substrate. The optimum pH was determined for each PTP used.
(§4) PTPase activity was assayed at 25° C. in a 100-μl reaction mixture containing an appropriate concentration of pNPP or FDP as substrate. The reaction was initiated by addition of the PTP and quenched after 10 min by addition of 50 μl of IN NaOH. The non-enzymatic hydrolysis of the substrate was corrected by measuring the control without the addition of the enzyme. The amount of p-nitrophenol produced was determined from the absorbance at 410 nm. To determine the kinetic parameter, Km, the initial velocities were measured at various substrate concentrations and the data were fitted to the Michaelis equation where velocity=(Vmax*[S])/(Km+[S]), and [S]=substrate reaction concentration.
(§5) The effect of the compounds on PTP was evaluated at 25° C. using pNPP or FDP as substrate. PTP was pre-incubated for fifteen minutes with various concentrations of compound. Substrate was then added at a fixed concentration (usually equal to the Km previously calculated). After 10 minutes, NaOH was added to stop the reaction. The hydrolysis of pNPP was followed at 410 nm on the Biotek Powerwave 200 microplate scanning spectrophotometer. The percent inhibition was calculated as follows: Percent Inhibition=[(control signal−compound signal)/control signal] ×100%. The IC50 was then determined by interpolation of a percent inhibition versus compound concentration plot.
(§6) Plasmids designed for bacterial GST-PTP fusion protein expression were derived by insertion of PCR-generated human PTP fragments into pGEX vectors (Pharmacia Biotech). Several of these constructs were then used to subclone phosphatases into pFastBac-1for expression in Sf-9 insect cells. Oligonucleotides used for the initial amplification of PTP genes are shown below. The cDNAs were prepared using the Gilbo BRL superscript preamplification system on RNAs purchased from Clontech.
The PTP Beta cDNA used has been described earlier (Levy et al., 1993, J. Biol. Chem, 268:10573-10581). The catalytic domain was amplified using the following oligonucleotides: 5′oligo: 5′-[…]-3′ (SEQ ID NO: 16) 3′oligo: 5′-[…]-3′ (SEQ ID NO: 17) and subsequently cloned into the Eco RI/Xho I sites of pGEX 6P-1.

[2] = molecular target: T2, PTP SIGMA (Homo sapiens, UniProt Q13332)
T2 construct: made in house; host or cells: E. coli BL-21 (pGEX 6P-1)
T2 sequence (Q13332 1320-1660 limits assumed): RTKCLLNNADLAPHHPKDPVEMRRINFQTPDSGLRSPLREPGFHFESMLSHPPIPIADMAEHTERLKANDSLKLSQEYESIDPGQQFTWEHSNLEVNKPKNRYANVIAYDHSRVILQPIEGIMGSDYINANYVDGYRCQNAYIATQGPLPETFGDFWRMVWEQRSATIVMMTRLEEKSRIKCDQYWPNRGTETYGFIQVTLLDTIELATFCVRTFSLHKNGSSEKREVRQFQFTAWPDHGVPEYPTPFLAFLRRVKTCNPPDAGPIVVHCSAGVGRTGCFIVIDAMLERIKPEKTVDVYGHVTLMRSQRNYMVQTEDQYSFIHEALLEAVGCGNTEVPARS
Description: as §1, §2, §3, §4, §5, §6
The PTP Sigma cDNA was amplified from human brain single strand cDNA (Clontech RNA) using the following oligonucleotides: 5′oligo: 5′-[…]-3′ (SEQ ID NO: 12) 3′oligo: 5′-[…]-3′ (SEQ ID NO: 13) and subsequently ligated into pGex 6P-1 Eco RI/Xho I sites.

[3] = molecular target: T3, PTP MEG2 (Homo sapiens, UniProt P43378)
T3 construct: made in house; host or cells: E. coli BL-21 (pGEX 6P-1)
T3 sequence (P43378 262-593 limits assumed): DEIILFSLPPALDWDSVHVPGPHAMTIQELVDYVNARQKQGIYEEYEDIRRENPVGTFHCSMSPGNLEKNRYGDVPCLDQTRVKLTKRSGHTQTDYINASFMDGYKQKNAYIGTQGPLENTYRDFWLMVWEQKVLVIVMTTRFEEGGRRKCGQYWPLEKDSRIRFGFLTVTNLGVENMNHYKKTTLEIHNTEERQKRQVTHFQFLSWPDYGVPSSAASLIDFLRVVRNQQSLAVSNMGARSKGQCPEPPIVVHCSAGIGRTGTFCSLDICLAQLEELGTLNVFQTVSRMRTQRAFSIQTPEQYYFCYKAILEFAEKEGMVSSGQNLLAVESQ
Description: as §1, §2, §3, §4, §5, §6
The PTP MEG2 cDNA was amplified from human placenta single strand cDNA (Clontech RNA) using the following oligonucleotides: 5′oligo: 5′-[…]-3′ (SEQ ID NO: 8) 3′oligo: 5′-[…]-3′ (SEQ ID NO: 9) and subsequently ligated into pGex 6P-1 Eco RI/Xho I sites.

[4] = molecular target: T4, PTP ALPHA (Homo sapiens, UniProt P18433); conditions: 25° C.
T4 construct: RTPα intracellular domain construct was obtained; made in house; host or cells: E. coli BL-21 (pGEX 3X)
Description: as §1, §2, §3, §4, §5, §6
RTPα intracellular domain construct was obtained, Schlessinger et al., U.S. Pat. No. 5,888,794, the contents of which are hereby incorporated in their entirety into the present application. The RTPα fragment was cloned into pGEX 3× using the following procedure. The portion from EclX I/Xma III/Eag I (N-terminus blunted by Klenow) to Eco RV was cloned into the Sma I site. The EclX I site is approximately 15 residues downstream of the transmembrane domain.

[5] = pNPP or FDP as substrate, 25° C., read-out: PTP IC50 Beta
[6] = pNPP or FDP as substrate, 25° C., read-out: PTP IC50 Sigma
[7] = pNPP or FDP as substrate, 25° C., read-out: PTP IC50 MEG2
[8] = comparison of R groups, read-out: IC50 Beta
[9] = comparison of R groups, read-out: IC50 Sigma
[10] = comparison of R groups, read-out: IC50 MEG2

## 1-(4-Aminophenoxy)-4-trifluoromethylsulfonamidophenoxy benzene [Example 72]
[1]; [5]
  IC50: 22.7 µM
[2]; [6]
  IC50: 41.1 µM
[3]; [7]
  IC50: > 100 µM

## O=[N+]([O-])c1cc(S(=O)(=O)C(F)(F)F)ccc1OC1CCC(Oc2ccc(S(=O)(=O)C(F)(F)F)cc2[N+](=O)[O-])C1 (mixture of isomers) [Example 12, 1,3-Bis-(2-nitro-4-trifluoromethanesulfonyl-phenoxy)-cyclopentane]
[1]; [5]
  IC50: 17.9 µM
[2]; [6]
  IC50: 91.7 µM
[3]; [7]
  IC50: > 100 µM

## CS(=O)(=O)Nc1ccc(Oc2ccc(Oc3ccc(NS(C)(=O)=O)cc3)cc2)cc1 [CH3SO2NH—]
[1]; [8]
  IC50: 62.6 µM
[2]; [9]
  IC50: 22 µM
[3]; [10]
  IC50: > 100 µM

## O=S(=O)(c1ccc(COCc2ccc(S(=O)(=O)C(F)(F)F)cc2)cc1)C(F)(F)F [Example 1, Bis (4-trifluoromethylsulfonylbenzyl) ether]
[1]; [5]
  IC50: 5.9 µM
[2]; [6]
  IC50: > 100 µM
[4]
  IC50: > 100 µM
[3]; [7]
  IC50: 55 µM

## O=S(=O)(c1ccc(COc2ccc(S(=O)(=O)C(F)(F)F)cc2)cc1)C(F)(F)F [Example 2, 4-Trifluoromethylsulfonylbenzyl 4-trifluoromethylsulfonylphenyl ether]
[1]; [5]
  IC50: 3.5 µM
[2]; [6]
  IC50: 30.5 µM
[4]
  IC50: > 100 µM
[3]; [7]
  IC50: 62.1 µM

## O=[N+]([O-])c1cc(S(=O)(=O)C(F)(F)F)ccc1SSc1ccc(S(=O)(=O)C(F)(F)F)cc1[N+](=O)[O-] [Example 8, Bis-(2-nitro-4-trifluoromethylsulfonylphenyl) disulfide]
[1]; [5]
  IC50: 26.5 µM
[2]; [6]
  IC50: 27.7 µM
[3]; [7]
  IC50: > 100 µM

## COC(=O)c1cc(Oc2ccc(S(=O)(=O)C(F)(F)F)cc2)cc(Oc2ccc(S(=O)(=O)C(F)(F)F)cc2)c1 [Example 9, 3,5-Bis-(4-trifluoromethanesulfonyl-phenoxy)-benzoic acid methyl ester]
[1]; [5]
  IC50: 45.6 µM
[2]; [6]
  IC50: 49.9 µM
[3]; [7]
  IC50: > 100 µM

## COC(=O)Cc1cc(Oc2ccc(S(=O)(=O)C(F)(F)F)cc2[N+](=O)[O-])cc(Oc2ccc(S(=O)(=O)C(F)(F)F)cc2[N+](=O)[O-])c1 [Example 10, [3,5-Bis-(2-nitro-4-trifluoromethanesulfonyl-phenoxy)-phenyl]-acetic acid methyl ester]
[1]; [5]
  IC50: 20.5 µM
[2]; [6]
  IC50: 33.8 µM
[3]; [7]
  IC50: > 100 µM

## COC(=O)c1cc(Oc2ccc(S(=O)(=O)C(F)(F)F)cc2[N+](=O)[O-])cc(Oc2ccc(S(=O)(=O)C(F)(F)F)cc2[N+](=O)[O-])c1 [Example 11, 3,5-Bis-(2-nitro-4-trifluoromethanesulfonyl-phenoxy)-benzoic acid methyl ester]
[1]; [5]
  IC50: 11.2 µM
[2]; [6]
  IC50: 24.1 µM
[3]; [7]
  IC50: > 100 µM

## COC(=O)c1c(Oc2ccc(S(=O)(=O)C(F)(F)F)cc2[N+](=O)[O-])cc(C)cc1Oc1ccc(S(=O)(=O)C(F)(F)F)cc1[N+](=O)[O-] [Example 13, 4-Methyl-2,6-bis-(2-nitro-4-trifluoromethanesulfonyl-phenoxy)-benzoic acid methyl ester]
[1]; [5]
  IC50: 15.1 µM
[2]; [6]
  IC50: 84.5 µM
[3]; [7]
  IC50: > 100 µM

## COC(=O)c1ccc(OCCOc2ccc(S(=O)(=O)C(F)(F)F)cc2[N+](=O)[O-])cc1 [Example 14, 4-[2-(2-nitro-4-trifluoromethanesulfonyl-phenoxy)-ethoxy]-benzoic acid methyl ester]
[1]; [5]
  IC50: 13.4 µM
[2]; [6]
  IC50: 6.75 µM
[3]; [7]
  IC50: > 100 µM

## O=C(O)c1ccc(Oc2cccc(Oc3ccc(S(=O)(=O)C(F)(F)F)cc3[N+](=O)[O-])c2)cc1 [Example 15, 4-[3-(2-Nitro-4-trifluoromethanesulfonyl-phenoxy)-phenoxy]-benzoic acid]
[1]; [5]
  IC50: 10.3 µM
[2]; [6]
  IC50: 11.7 µM
[3]; [7]
  IC50: 21.1 µM

## COC(=O)c1cc(Oc2ccc(S(=O)(=O)C(F)(F)F)cc2[N+](=O)[O-])n(-c2cc(C(F)(F)F)cc(C(F)(F)F)c2)n1 [Example 16, 1-(3,5-Bis-trifluoromethyl-phenyl)-5-(2-nitro-4-trifluoromethanesulfonyl-phenoxy)-1H-pyrazole-3-carboxylic acid methyl ester]
[1]; [5]
  IC50: 9.6 µM
[2]; [6]
  IC50: 29.4 µM
[3]; [7]
  IC50: 79.5 µM

## CCOC(=O)COc1ccc(S(=O)(=O)c2ccc(Oc3ccc(S(=O)(=O)C(F)(F)F)cc3[N+](=O)[O-])cc2)cc1 [Example 17, {4-[4-(2-Nitro-4-trifluoromethanesulfonyl-phenoxy)-benzenesulfonyl]-phenoxy}-acetic acid ethyl ester]
[1]; [5]
  IC50: 26 µM
[2]; [6]
  IC50: > 100 µM
[3]; [7]
  IC50: 88.5 µM

## O=S(=O)(Nc1ccc(Oc2ccc(NS(=O)(=O)C(F)(F)F)cc2)cc1)C(F)(F)F [Example 73, Bis(4-trifluoromethylsulfonamidophenyl) ether]
[1]; [5]
  IC50: > 100 µM
[2]; [6]
  IC50: > 100 µM
[3]; [7]
  IC50: > 100 µM

## O=S(=O)(Nc1ccc(Oc2cccc(Oc3ccc(NS(=O)(=O)C(F)(F)F)cc3)c2)cc1)C(F)(F)F [Example 74, 1,3-Bis(4-trifluoromethylsulfonamidophenoxy)benzene]
[1]; [5]
  IC50: 26.6 µM
[2]; [6]
  IC50: 7.6 µM
[3]; [7]
  IC50: 58.7 µM

## O=S(=O)(Nc1ccc(-c2nnc(-c3ccc(NS(=O)(=O)C(F)(F)F)cc3)o2)cc1)C(F)(F)F [Example 75, 2,5-Bis(4-trifluoromethylsulfonamidophenyl)-(1,3,4)oxadiazole]
[1]; [5]
  IC50: 2.9 µM
[2]; [6]
  IC50: 13.2 µM
[3]; [7]
  IC50: 12.8 µM

## CC(C)(c1ccc(NS(=O)(=O)C(F)(F)F)cc1)c1ccc(C(C)(C)c2ccc(NS(=O)(=O)C(F)(F)F)cc2)cc1 [Example 76]
[1]; [5]
  IC50: 6.4 µM
[2]; [6]
  IC50: 20 µM
[3]; [7]
  IC50: 12.9 µM

## Nc1ccc(Oc2ccc(Oc3ccc(N)cc3)cc2)cc1 [NH2]
[1]; [8]
  IC50: > 100 µM
[2]; [9]
  IC50: > 100 µM
[3]; [10]
  IC50: > 100 µM
